Test results from patent US20150071918A1, “PEPTIDES FOR THE TREATMENT OF CANCER” (H. LEE MOFFITT CANCER CENTER AND RESEARCH INSTITUTE, INC., priority 2012, published 2015).
Where two headings read alike, the source gives them in different places. *1 amine or outer side, *2 acyl side, *3 side chain or, on linkers, in order; H or OH if unused. Where a SMILES comes first, the peptide text is derived from it. Bridges are numbered along the chain shown (N, C = ends). Primed or numbered codes have the meaning given here. [ ]: non-standard residue; d: D form. The star is where a group is joined. T1 = linker NH2CH2CH2N(SO2Me)CH2COOH, CS(=O)(=O)N(CCN[*:1])CC(=O)[*:2]; T1″ = NH2CH2CH2N(SO2Me)CH2COOH, CS(=O)(=O)N(CCN[*:1])CC(=O)[*:2]; dProlinol(O-CH2CO) = O=C(COC[C@H]1CCCN1[*:1])[*:2]; N(2-Aminoethyl)Gly = O=C(CN(CCN[*:3])[*:1])[*:2]; T3 = linker N(CH2)3CHCH2OCH2COOH; Nle = CCCC[C@H](N)C(=O)O; Ms = CS(=O)(=O)*; Sar = CNCC(=O)O

Test system: H929 myeloma cells
Type: cell-based, human
Conditions: for bioactivity relative to parent/comparator peptide: SAR statements; for fold more potent than linear HYD1: reference of the 10- and 15-fold statements not expressly named; for activity relative to linear D-HYD1 (words): TOPRO 3
Procedure: H929 cells were treated for 24 hours with varying concentrations of peptide. Cell death was measured by Topro-3 staining and FACS analysis. The IC50 values were obtained from linear regression analysis and an average value was obtained from 3 independent experiments.
Table 4 legend: Structure activity relationship in H929 myeloma cells of cyclic INTEGRIN INTERACTION INHIBITORS derivatives. The minimal bioactive core sequence of INTEGRIN INTERACTION INHIBITORS WSVVM (SEQ ID NO:33) was cyclized using 2 novel reduced amide bond beta turn promoters and KLKLK (SEQ ID NO:34) as the non-recognition sequence. H929 cells were treated with varying concentrations of the indicated peptide for 24 h. Cell viability was determined using Topro-3 staining and FACS analysis after drug treatment. IC50 values were generated from linear regressions generated from the dose response curves (n=mean of 3 independent experiments).
A colony forming assay was used to compare induced cell death in H929 multiple myeloma cells. Cells were treated with integrin interaction inhibitors, shown in FIG. 5 and Table 4, and cell death was measured following 24 hour peptide treatment by TOPRO-3 staining and FACS analysis.

[1] = H929 myeloma cells, 24 h treatment, Topro-3 staining and FACS, mean of at least 3 independent experiments, read-out: IC50
[2] = Table 8, cyclic III peptide analogs, H929 cells, read-out: IC50

Compound	IC50 [1] [µM]	IC50 [2] [µM]	bioactivity relative to parent/comparator peptide (H929 cells)	also measured
CCCC[C@@H]1NC(=O)CN(S(C)(=O)=O)CCNC(=O)[C@H](CCCCN)NC(=O)[C@H](CC(C)C)NC(=O)[C@H](CCCCN)NC(=O)[C@H](CC(C)C)NC(=O)[C@H](CCCCN)NC(=O)COC[C@H]2CCCN2C(=O)[C@H](Cc2c[nH]c3ccccc23)NC(=O)[C@H](C)NC(=O)[C@H](C(C)C)NC(=O)[C@H](C(C)C)NC1=O [Peptide 16, KLKLKT1N*VVAWT3] (Ms-[N(2-Aminoethyl)Gly][Nle]VVAW[dProlinol(O-CH2CO)]KLKLK; lactam 1-C)	13	–	–	IC50 (text b390, H929 multiple myeloma cells, read-out: bioactivity): 1 µM
KLKLKT1AAVVN*T1 (cyclo(KLKLK[T1″]AAVV[Nle][T1″])) [Peptide 15]	18	3	unexpected improvement in bioactivity	–
CCCC[C@@H]1NC(=O)CN(S(C)(=O)=O)CCNC(=O)[C@H](CCCCN)NC(=O)[C@H](CC(C)C)NC(=O)[C@H](CCCCN)NC(=O)[C@H](CC(C)C)NC(=O)[C@H](CCCCN)NC(=O)CN(S(C)(=O)=O)CCNC(=O)[C@H](Cc2c[nH]c3ccccc23)NC(=O)[C@H](CO)NC(=O)[C@H](C(C)C)NC(=O)[C@H](C(C)C)NC1=O [Peptide 8, KLKLKT1N*VVSWT1]	–	–	resulted in a further increase of the peptide's bioactivity	fold more potent than linear HYD1 (H929 cells): 15 fold
CCCC[C@@H]1NC(=O)CN(S(C)(=O)=O)CCNC(=O)[C@H](CCCCN)NC(=O)[C@H](CC(C)C)NC(=O)[C@H](CCCCN)NC(=O)[C@H](CC(C)C)NC(=O)[C@H](CCC(N)=O)NC(=O)COC[C@H]2CCCN2C(=O)[C@H](Cc2c[nH]c3ccccc23)NC(=O)[C@H](C)NC(=O)[C@H](C(C)C)NC(=O)[C@H](C(C)C)NC1=O [Peptide 18, QLKLKT1N*VVAWT3] (Ms-[N(2-Aminoethyl)Gly][Nle]VVAW[dProlinol(O-CH2CO)]QLKLK; lactam 1-C)	–	–	–	IC50 (24 h): 19 µM
CSCC[C@@H]1NC(=O)CN(S(C)(=O)=O)CCNC(=O)[C@H](CCCCN)NC(=O)[C@H](CC(C)C)NC(=O)[C@H](CCCCN)NC(=O)[C@H](CC(C)C)NC(=O)[C@H](CCCCN)NC(=O)CN(S(C)(=O)=O)CCNC(=O)[C@H](Cc2c[nH]c3ccccc23)NC(=O)[C@H](CO)NC(=O)[C@H](C(C)C)NC(=O)[C@H](C(C)C)NC1=O [Peptide 2, KLKLKT1MVVSWT1]	–	–	–	fold more potent compared to the cyclic D-HYD1 variant (H929 cells): 2 fold; fold more potent than linear HYD1 (H929 cells): 2.5 fold
CCCC[C@@H]1NC(=O)CN(S(C)(=O)=O)CCNC(=O)[C@H](CCCCN)NC(=O)[C@H](CC(C)C)NC(=O)[C@H](CCCCN)NC(=O)[C@H](CC(C)C)NC(=O)[C@H](CCCCN)NC(=O)COC[C@H]2CCCN2C(=O)[C@H](Cc2c[nH]c3ccccc23)NC(=O)[C@H](C)NC(=O)[C@H]([C@@H](C)CC)NC(=O)[C@H](C(C)C)NC1=O [Peptide 25, KLKLKT1N*VIAWT3] (Ms-[N(2-Aminoethyl)Gly][Nle]VIAW[dProlinol(O-CH2CO)]KLKLK; lactam 1-C)	–	10	–	–
CCCC[C@@H]1NC(=O)CN(S(C)(=O)=O)CCNC(=O)[C@H](CCCCN)NC(=O)[C@H](CC(C)C)NC(=O)[C@H](CCCCN)NC(=O)[C@H](CC(C)C)NC(=O)[C@H](CCCCN)NC(=O)COC[C@H]2CCCN2C(=O)[C@H](Cc2c[nH]c3ccccc23)NC(=O)[C@H](C)NC(=O)[C@H](Cc2ccccc2)NC(=O)[C@H](C(C)C)NC1=O [Peptide 26, KLKLKT1N*VFAWT3] (Ms-[N(2-Aminoethyl)Gly][Nle]VFAW[dProlinol(O-CH2CO)]KLKLK; lactam 1-C)	–	9	–	–
KLKLQT1N*VVAWT3 (cyclo(KLKLQ[T1][Nle]VVAW[T3])) [Peptide 19]	12	19	–	–
CSCC[C@H]1NC(=O)CN(S(C)(=O)=O)CCNC(=O)[C@@H](CCCCN)NC(=O)[C@@H](CC(C)C)NC(=O)[C@@H](CCCCN)NC(=O)[C@@H](CC(C)C)NC(=O)[C@@H](CCCCN)NC(=O)CN(S(C)(=O)=O)CCNC(=O)[C@@H](Cc2c[nH]c3ccccc23)NC(=O)[C@@H](CO)NC(=O)[C@@H](C(C)C)NC(=O)[C@@H](C(C)C)NC1=O [cyclic D-HYD1]	–	–	–	IC50 (24 h): 30 µM; activity relative to linear D-HYD1 (words) (H929 cells): twice as active as linear D-HYD1; activity relative to linear D-HYD1 (words) (H929 cells, listed as c-D-HYD1): about twice as active as linear D-HYD1
CCCC[C@@H]1NC(=O)[C@H](C(C)C)NC(=O)[C@H](C(C)C)NC(=O)[C@H](C)NC(=O)[C@H](Cc2c[nH]c3ccccc23)NC(=O)COC[C@H]2CCCN2C(=O)[C@H](CCCCN)NC(=O)CN(C)C(=O)[C@H](CCCCN)NC(=O)CN(C)C(=O)[C@H](CCCCN)NC(=O)COC[C@H]2CCCN2C1=O [Peptide 23, KXKXKT3WAVVN*T3] (cyclo(K[Sar]K[Sar]K[dProlinol(O-CH2CO)]WAVV[Nle][dProlinol(O-CH2CO)]))	–	–	poor bioactivity	IC50 (24 h): > 150 µM
CC(C)C[C@@H]1NC(=O)[C@H](CCCCN)NC(=O)CN(S(C)(=O)=O)CCNC(=O)[C@H](Cc2c[nH]c3ccccc23)NC(=O)[C@H](CO)NC(=O)[C@H](C(C)C)NC(=O)[C@H](C(C)C)NC(=O)[C@H](C)NC(=O)CN(S(C)(=O)=O)CCNC(=O)[C@H](CCCCN)NC(=O)[C@H](CC(C)C)NC(=O)[C@H](CCCCN)NC1=O [Peptide 7, KLKLKT1AVVSWT1]	–	–	decrease in activity	–
CSCC[C@@H]1NC(=O)CN(S(C)(=O)=O)CCNC(=O)[C@H](CCCCN)NC(=O)[C@H](CC(C)C)NC(=O)[C@H](CCCCN)NC(=O)[C@H](CC(C)C)NC(=O)[C@H](CCCCN)NC(=O)CN(S(C)(=O)=O)CCNC(=O)[C@H](Cc2c[nH]c3ccccc23)NC(=O)[C@H](CO)NC(=O)[C@H](C(C)C)NC(=O)[C@H](C)NC1=O [Peptide 6, KLKLKT1MAVSWT1]	–	–	increase in activity	–
CCCC[C@@H]1NC(=O)CN(S(C)(=O)=O)CCNC(=O)[C@H](CCCCN)NC(=O)[C@H](CC(C)C)NC(=O)[C@H](CCCCN)NC(=O)[C@H](CC(C)C)NC(=O)[C@H](CCCCN)NC(=O)COC[C@H]2CCCN2C(=O)[C@H](Cc2c[nH]c3ccccc23)NC(=O)[C@H](C)NC(=O)[C@H](CC(C)C)NC(=O)[C@H](C(C)C)NC1=O [Peptide 24, KLKLKT1N*VLAWT3] (Ms-[N(2-Aminoethyl)Gly][Nle]VLAW[dProlinol(O-CH2CO)]KLKLK; lactam 1-C)	–	10	–	–
KLKLKT1WSVVMT1 (cyclo(KLKLK[T1]WSVVM[T1])) [Peptide 10]	1	6	increases in activity relative to the inverso peptide	IC50 (Table 4, H929 myeloma cells, 24 h, Topro-3 staining and FACS, mean of 3 independent experiments, read-out: IC50): 6.7 µM; IC50 (Table 5, H929 multiple myeloma cells, 24 hour peptide treatment, mean and standard deviation of three independent experiments, read-out: IC50): 5.9 µM
CSCC[C@@H]1NC(=O)CN(S(C)(=O)=O)CCNC(=O)[C@H](CCCCN)NC(=O)[C@H](CC(C)C)NC(=O)[C@H](CCCCN)NC(=O)[C@H](CC(C)C)NC(=O)[C@H](CCCCN)NC(=O)CN(S(C)(=O)=O)CCNC(=O)[C@H](C)NC(=O)[C@H](CO)NC(=O)[C@H](C(C)C)NC(=O)[C@H](C(C)C)NC1=O [Peptide 3, KLKLKT1MVVSAT1]	–	–	decrease in activity	–
CCCC[C@@H]1NC(=O)CN(S(C)(=O)=O)CCNC(=O)[C@H](CCCCN)NC(=O)[C@H](CC(C)C)NC(=O)[C@H](CCCCN)NC(=O)[C@H](CC(C)C)NC(=O)[C@H](CCCCN)NC(=O)CN(S(C)(=O)=O)CCNC(=O)[C@H](Cc2c[nH]c3ccccc23)NC(=O)[C@H](Cc2ccc(O)cc2)NC(=O)[C@H](C(C)C)NC(=O)[C@H](C(C)C)NC1=O [Peptide 9, KLKLKT1N*VVYWT1]	–	–	had a similar bioactivity as the inverso cyclic III peptide 8	–
CCCC[C@@H]1NC(=O)[C@H](C(C)C)NC(=O)[C@H](C(C)C)NC(=O)[C@H](C)NC(=O)[C@H](Cc2c[nH]c3ccccc23)NC(=O)COC[C@H]2CCCN2C(=O)[C@H](CCCCN)NC(=O)[C@H](CC(C)C)NC(=O)[C@H](CCCCN)NC(=O)[C@H](CC(C)C)NC(=O)[C@H](CCCCN)NC(=O)COC[C@H]2CCCN2C1=O [Peptide 22, KLKLKT3WAVVN*T3] (cyclo(KLKLK[dProlinol(O-CH2CO)]WAVV[Nle][dProlinol(O-CH2CO)]))	–	–	–	IC50 (24 h): 17 µM
KQKLKT1N*VVAWT3 (cyclo(KQKLK[T1][Nle]VVAW[T3])) [Peptide 20]	15	18	–	–

Second part, led by results:

IC50 [1] [µM]	IC50 [2] [µM]	Compound	bioactivity relative to parent/comparator peptide (H929 cells)	also measured
10	69	KLKLKT1WAVVAT1 (cyclo(KLKLK[T1]WAVVA[T1])) [Peptide 12]	–	–
39	25	KLKQKT1N*VVAWT3 [21] (cyclo(KLKQK[T1][Nle]VVAW[T3])) [Peptide 21]	–	–
> 50	41	KLKLKT1WAAVN*T1 (cyclo(KLKLK[T1″]WAAV[Nle][T1″])) [Peptide 14]	–	–
10	12	KLKLKT1WAVVN*T1 (cyclo(KLKLK[T1]WAVV[Nle][T1])) [Peptide 11]	–	–
9	26	KLKLKT1WAVAN*T1 (cyclo(KLKLK[T1]WAVAL[T1]); not fully specified (residue 11); printed as KLKLKT1WAVAN*T1) [Peptide 13]	–	–
